Assay results: patent US20240423207A1, “PICOLINAMIDE COMPOUNDS WITH FUNGICIDAL ACTIVITY” (CORTEVA AGRISCIENCE LLC, priority 2014, published 2024)
Where two headings read alike, the source gives them in different places.

Key:
[1] = tested on: Puccinia triticina; Synonym: Puccinia recondita f sp. tritici; test: Wheat Brown Rust (PUCCRT) fungicidal activity on wheat seedlings; format: in vivo; settings: Low Volume, 121.5 g/H
Method: Technical grades of materials were dissolved in acetone, which were then mixed with nine volumes of water (H2O) containing 110 ppm Triton X-100. The fungicide solutions were applied onto wheat seedlings using an automated booth sprayer to run-off. All sprayed plants were allowed to air dry prior to further handling. All fungicides were evaluated using the aforementioned method for their activity vs. all target diseases, unless stated otherwise. Wheat leaf blotch and brown rust activity were also evaluated using track spray applications, in which case the fungicides were formulated as EC formulations, containing 0.1% Trycol 5941 in the spray solutions. Wheat plants (variety Yuma) were grown from seed in a greenhouse in 50% mineral soil/50% soil-less Metro mix until the first leaf was fully emerged, with 7-10 seedlings per pot. These plants were inoculated with an aqueous spore suspension of Septoria tritici either prior to or after fungicide treatments. After inoculation the plants were kept in 100% relative humidity (one day in a dark dew chamber followed by two to three days in a lighted dew chamber at 20° C.) to permit spores to germinate and infect the leaf. The plants were then transferred to a greenhouse set at 20° C. for disease to develop. When disease symptoms were fully expressed on the 1st leaves of untreated plants, infection levels were assessed on a scale of 0 to 100 percent disease severity. Percent disease control was calculated using the ratio of disease severity on treated plants relative to untreated plants. Example B: Evaluation of Fungicidal Activity: Wheat Brown Rust (Puccinia triticina; Synonym: Puccinia recondita f sp. tritici; Bayer code PUCCRT): Wheat plants (variety Yuma) were grown from seed in a greenhouse in 50% mineral soil/50% soil-less Metro mix until the first leaf was fully emerged, with 7-10 seedlings per pot. These plants were inoculated with an aqueous spore suspension of Puccinia triticina either prior to or after fungicide treatments. After inoculation the plants were kept in a dark dew room at 22° C. with 100% relative humidity overnight to permit spores to germinate and infect the leaf. The plants were then transferred to a greenhouse set at 24° C. for disease to develop. Fungicide formulation, application and disease assessment followed the procedures as described in the Example A.

[2] = tested on: Mycosphaerella graminicola; Anamorph: Septoria tritici; test: Leaf Blotch of Wheat (SEPTTR) fungicidal activity on wheat seedlings; format: in vivo; settings: Zymoseptoria tritici, Low Volume, 121.5 g/H
Method: Example A: Evaluation of Fungicidal Activity: Leaf Blotch of Wheat (Mycosphaerella graminicola; Anamorph: Septoria tritici; Bayer code […]): Technical grades of materials were dissolved in acetone, which were then mixed with nine volumes of water (H2O) containing 110 ppm Triton X-100. The fungicide solutions were applied onto wheat seedlings using an automated booth sprayer to run-off. All sprayed plants were allowed to air dry prior to further handling. All fungicides were evaluated using the aforementioned method for their activity vs. all target diseases, unless stated otherwise. Wheat leaf blotch and brown rust activity were also evaluated using track spray applications, in which case the fungicides were formulated as EC formulations, containing 0.1% Trycol 5941 in the spray solutions. Wheat plants (variety Yuma) were grown from seed in a greenhouse in 50% mineral soil/50% soil-less Metro mix until the first leaf was fully emerged, with 7-10 seedlings per pot. These plants were inoculated with an aqueous spore suspension of Septoria tritici either prior to or after fungicide treatments. After inoculation the plants were kept in 100% relative humidity (one day in a dark dew chamber followed by two to three days in a lighted dew chamber at 20° C.) to permit spores to germinate and infect the leaf. The plants were then transferred to a greenhouse set at 20° C. for disease to develop. When disease symptoms were fully expressed on the 1st leaves of untreated plants, infection levels were assessed on a scale of 0 to 100 percent disease severity. Percent disease control was calculated using the ratio of disease severity on treated plants relative to untreated plants.

[3] = 24 h, 1 Day Protectant, read-out: PUCCRT 1DP disease control
[4] = 72 h, 3 Day Curative, read-out: PUCCRT 3DC disease control
[5] = 24 h, 1 Day Protectant, read-out: SEPTTR 1DP disease control
[6] = 72 h, 3 Day Curative, read-out: SEPTTR 3DC disease control

Row | Structure (SMILES) | pest or weed control at 121.5 g/ha [1, 3] [%] | pest or weed control at 121.5 g/ha [1, 4] [%] | pest or weed control at 121.5 g/ha [2, 5] [%] | pest or weed control at 121.5 g/ha [2, 6] [%]
1 | COc1ccnc(C(=O)N[C@@H](C)C(=O)O[C@@H](C)C(c2ccc(C)cc2)c2ccc(C)cc2)c1OC(C)=O [Cmpd 167] | > 80 | > 80 | > 80 | > 80
2 | COc1ccnc(C(=O)N[C@@H](C)C(=O)O[C@@H](C)C(c2ccc(C)cc2)c2ccc(C)cc2)c1OC(=O)C(C)C [Cmpd 168] | > 80 | < 80 | > 80 | > 80
3 | COc1ccnc(C(=O)N[C@@H](C)C(=O)O[C@@H](C)C(c2ccc(Br)cc2)c2ccc(Br)cc2)c1OCOC(C)=O [Cmpd 169] | > 80 | < 80 | > 80 | > 80
4 | COc1ccnc(C(=O)N[C@@H](C)C(=O)O[C@@H](C)C(c2ccc(C)s2)c2ccc(C)s2)c1OCOC(C)=O [Cmpd 170] | < 80 | < 80 | < 80 | < 80
5 | COc1ccnc(C(=O)N[C@@H](C)C(=O)O[C@@H](C)C(c2ccc(C)cc2)c2ccc(C)cc2)c1OCOC(C)=O [Cmpd 171] | > 80 | > 80 | > 80 | > 80
6 | COc1ccnc(C(=O)N[C@@H](C)C(=O)O[C@@H](C)[C@@H](c2ccccc2)c2ccc(C(F)(F)F)cc2)c1OC(C)=O [Cmpd 173] | > 80 | < 80 | > 80 | > 80
7 | COc1ccnc(C(=O)N[C@@H](C)C(=O)O[C@@H](C)[C@@H](c2ccccc2)c2ccc(C(F)(F)F)cc2)c1OCOC(C)=O [Cmpd 175] | > 80 | > 80 | > 80 | > 80
8 | CC(=O)OCOc1cccnc1C(=O)N[C@@H](C)C(=O)O[C@@H](C)C(c1ccc(F)cc1)c1ccc(F)cc1 [Cmpd 178] | < 80 | – | > 80 | > 80
9 | CCOc1ccnc(C(=O)N[C@@H](C)C(=O)O[C@@H](C)C(c2ccc(F)cc2)c2ccc(F)cc2)c1OCOC(C)=O [Cmpd 179] | < 80 | – | > 80 | > 80
10 | COc1ccnc(C(=O)N[C@@H](C)C(=O)O[C@@H](C)C(c2ccc(-c3ccccc3)cc2)c2ccc(-c3ccccc3)cc2)c1OC(C)=O [Cmpd 182] | – | < 80 | – | < 80
11 | COc1ccnc(C(=O)NCC(=O)O[C@@H](C)C(c2ccc(F)cc2)c2ccc(F)cc2)c1OCOC(C)=O [Cmpd 183] | > 80 | > 80 | > 80 | < 80
12 | CC[C@H](NC(=O)c1nccc(OC)c1OCOC(C)=O)C(=O)O[C@@H](C)C(c1ccc(F)cc1)c1ccc(F)cc1 [Cmpd 184] | > 80 | > 80 | > 80 | > 80
13 | COc1ccnc(C(=O)N[C@H](C(=O)O[C@@H](C)C(c2ccc(F)cc2)c2ccc(F)cc2)C(C)C)c1OCOC(C)=O [Cmpd 185] | > 80 | < 80 | > 80 | > 80
14 | COc1ccnc(C(=O)N[C@@H](CC(C)C)C(=O)O[C@@H](C)C(c2ccc(F)cc2)c2ccc(F)cc2)c1OCOC(C)=O [Cmpd 186] | < 80 | – | > 80 | < 80
15 | COc1ccnc(C(=O)NCC(=O)O[C@@H](C)C(c2ccc(F)cc2)c2ccc(F)cc2)c1OC(C)=O [Cmpd 187] | > 80 | < 80 | < 80 | < 80
16 | CC[C@H](NC(=O)c1nccc(OC)c1OC(C)=O)C(=O)O[C@@H](C)C(c1ccc(F)cc1)c1ccc(F)cc1 [Cmpd 188] | > 80 | < 80 | > 80 | > 80
17 | COc1ccnc(C(=O)N[C@H](C(=O)O[C@@H](C)C(c2ccc(F)cc2)c2ccc(F)cc2)C(C)C)c1OC(C)=O [Cmpd 189] | > 80 | < 80 | > 80 | > 80
18 | COc1ccnc(C(=O)N[C@@H](CC(C)C)C(=O)O[C@@H](C)C(c2ccc(F)cc2)c2ccc(F)cc2)c1OC(C)=O [Cmpd 190] | < 80 | – | < 80 | < 80
19 | COc1ccccc1C(c1ccccc1OC)[C@H](C)OC(=O)[C@H](C)NC(=O)c1nccc(OC)c1OCOC(C)=O [Cmpd 191] | > 80 | > 80 | > 80 | > 80
20 | COc1cccc(C(c2cccc(OC)c2)[C@H](C)OC(=O)[C@H](C)NC(=O)c2nccc(OC)c2OCOC(C)=O)c1 [Cmpd 192] | > 80 | > 80 | > 80 | > 80
21 | COc1ccnc(C(=O)N[C@@H](C)C(=O)O[C@@H](C)C(O)(c2ccc(Cl)cc2F)c2ccc(Cl)cc2F)c1OCOC(C)=O [Cmpd 193] | < 80 | – | > 80 | > 80
22 | COc1ccnc(C(=O)N[C@@H](C)C(=O)O[C@@H](C)C(c2ccc(C)c(F)c2)c2ccc(C)c(F)c2)c1OCOC(C)=O [Cmpd 194] | > 80 | < 80 | > 80 | > 80
23 | COc1ccnc(C(=O)N[C@@H](C)C(=O)O[C@@H](C)C(c2ccc(C)c(Cl)c2)c2ccc(C)c(Cl)c2)c1OCOC(C)=O [Cmpd 195] | > 80 | < 80 | > 80 | < 80
24 | C#Cc1ccc(C(c2ccc(C#C)cc2)[C@H](C)OC(=O)[C@H](C)NC(=O)c2nccc(OC)c2OCOC(C)=O)cc1 [Cmpd 197] | > 80 | > 80 | > 80 | > 80
25 | CCc1ccc(C(c2ccc(CC)cc2)[C@H](C)OC(=O)[C@H](C)NC(=O)c2nccc(OC)c2OCOC(C)=O)cc1 [Cmpd 198] | > 80 | < 80 | > 80 | > 80
26 | COc1ccnc(C(=O)N[C@@H](C)C(=O)O[C@@H](C)[C@@H](c2ccccc2)c2ccc(F)cc2)c1OCOC(C)=O [Cmpd 199] | > 80 | > 80 | > 80 | > 80
27 | COc1ccnc(C(=O)N[C@@H](C)C(=O)O[C@@H](C)C(O)(c2ccc(Cl)c(Cl)c2)c2ccc(Cl)c(Cl)c2)c1OCOC(C)=O [Cmpd 201] | < 80 | – | > 80 | > 80
